Results as given in US20220274947A1, “NOVEL HETEROARYL-TRIAZOLE COMPOUNDS AS PESTICIDES” (Bayer Aktiengesellschaft, priority 2019, published 2022).

Legend:
Type in all cases: in vivo
Ctenocephalides felis = Ctenocephalides felis oral test (CTECFE Oral); details: 48 h, read-out: activity (mortality)
Procedure, shortened: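 About 20 unfed adult cat fleas fed through parafilm on cattle blood containing compound (DMSO concentrate diluted in blood to the desired concentration). Blood held at 37 °C, fleas at room temperature. Mortality (%) scored after 2 days.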

Rhipicephalus sanguineus = Rhipicephalus sanguineus in-vitro contact test, adult brown dog ticks (RHIPSA Cont); details: 48 h, after 48 hours, read-out: activity (efficacy: 100% means all ticks are dead or moribund); for pest or weed control at 1 µg/cm2, 100 g/ha: application rate 1 μg/cm^2 (=100 g/ha); for pest or weed control at 5 µg/cm2, 500 g/ha: application rate 5 μg/cm^2 (=500 g/ha)
Procedure, shortened: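 Mortality of adult R. sanguineus was judged 48 h after contact with acetone-applied residues on glass tube walls. Ticks that stayed immotile or moved without coordination when heated to 45–50 °C (max 5 min) counted as dead or moribund.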

Myzus persicae [1] = assay: Myzus persicae oral test; details: 120 h, read-out: activity (mortality)
Procedure, shortened: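 Percent mortality was recorded at day 5, where 0% means no aphids killed. Compound prepared from an acetone concentrate diluted in water and combined with IPL41 medium containing sugar was offered to mixed-stage green peach aphids, which sucked it through a parafilm seal.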

Myzus persicae [2] = assay: Myzus persicae spray test; details: in Brassica rapa, foliar, 120 h; for mortality at 100 g/ha: read-out: activity (mortality), application rate 100 g/ha, spray, Chinese cabbage leaf disks, after 5 days; for mortality at 500 g/ha: read-out: activity (mortality), application rate 500 g/ha, spray, Chinese cabbage leaf disks, after 5 days
Procedure, shortened: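 Compound in acetone/DMF solvent diluted in water with 1000 ppm alkylarylpolyglycol ether emulsifier, sprayed onto Chinese cabbage leaf disks infested with all instars of Myzus persicae. Mortality (%) scored after 5 days.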

[3] = tested on: Anopheles funestus strain FUMOZ-R; assay: Anopheles funestus test (ANPHFU surface treatment & contact assay); details: exposure 30 minutes, 24 hours after contact, read-out: efficacy (mortality); for mortality at 4 mg/m2: surface concentration 4 mg/m^2, glazed tile; for mortality at 20 mg/m2: surface concentration 20 mg/m^2, glazed tile
Procedure, shortened: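 Adult FUMOZ-R mosquitoes were exposed 30 min to glazed tiles treated with compound in acetone plus 2000 ppm rapeseed oil methyl ester, after solvent evaporation. Percent mortality was scored 24 h after contact.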

[4] = tested on: Musca domestica strain WHO—N; assay: Musca domestica test (MUSCDO surface treatment & contact assay); details: exposure 30 minutes, 24 hours after contact, read-out: efficacy (mortality); for mortality at 4 mg/m2: surface concentration 4 mg/m^2, glazed tile; for mortality at 20 mg/m2: surface concentration 20 mg/m^2, glazed tile
Procedure, shortened: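 Compound dissolved in acetone (2 mg/ml) with 2000 ppm rapeseed oil methyl ester and pipetted onto glazed tile; after acetone evaporation, adult flies exposed to dried surface for 30 minutes. Mortality (%) scored 24 hours after contact.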

Nezara viridula = Nezara viridula spray test; details: in Hordeum vulgare, 96 h, barley plants, larvae, after 4 days; for mortality at 500 g/ha: application rate 500 g/ha; for mortality at 100 g/ha: application rate 100 g/ha
Procedure, shortened: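 Barley plants infested with N. viridula larvae were sprayed with compound in acetone/DMF diluted with water containing 1000 ppm alkylarylpolyglycol ether emulsifier. Mortality (%) was scored after 4 days; 100% means all bugs killed, 0% none.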

Compound | mortality at 100 ppm (Ctenocephalides felis) [%] | pest or weed control at 1 µg/cm2, 100 g/ha (Rhipicephalus sanguineus) [%] | pest or weed control at 5 µg/cm2, 500 g/ha (Rhipicephalus sanguineus) [%] | mortality at 4 ppm (Myzus persicae [1]) [%] | mortality at 100 g/ha (Myzus persicae [2]) [%] | mortality at 4 mg/m2 [3] [%] | mortality at 20 mg/m2 [3] [%] | mortality at 4 mg/m2 [4] [%] | mortality at 20 mg/m2 [4] [%] | mortality at 500 g/ha (Nezara viridula) [%] | mortality at 500 g/ha (Myzus persicae [2]) [%] | mortality at 100 g/ha (Nezara viridula) [%] | mortality at 0.8 ppm (Myzus persicae [1]) [%]
C[C@H](NC(=O)c1cc(Br)cc(C(F)F)c1)c1ncnn1-c1ccc(C#N)cn1 [II-83] | 100 | 100 | 100 | 100 | 90 | 80 to 100 | 80 to 100 | 80 to 100 | 80 to 100 |  |  |  | 
Cc1nc([C@H](C)NC(=O)c2cc(Cl)cc(Cl)c2)n(-c2cc(C#N)ccn2)n1 [II-17] | 100 | 80 | 100 |  |  | 80 to 100 | 80 to 100 | 80 to 100 | 80 to 100 |  |  |  | 
C[C@H](NC(=O)c1cccc(Cl)n1)c1ncnn1-c1ccc(C#N)cn1 [II-9] | 90 |  | 80 |  |  | 80 to 100 | 80 to 100 |  | 80 to 100 | 100 |  |  | 
C[C@H](NC(=O)c1cc(Cl)cc(C(F)F)c1)c1ncnn1-c1ccc(C#N)cn1 [II-12] | 100 | 100 | 100 | 100 | 90 | 80 to 100 | 80 to 100 | 80 to 100 | 80 to 100 | 100 | 90 | 100 | 
CC(=O)Nc1ccnc(-n2ncnc2[C@H](C)NC(=O)c2cc(Cl)cc(C(F)(F)F)c2)c1 [II-36] |  |  |  |  |  | 80 to 100 | 80 to 100 |  | 80 to 100 | 90 | 90 |  | 
C[C@H](NC(=O)c1cc(Cl)cc(C(F)(F)F)c1)c1ncnn1-c1ccc(N(C)C(=O)C2CC2)cn1 [II-79] | 100 | 80 | 80 |  | 100 | 80 to 100 | 80 to 100 |  |  |  |  | 100 | 100
C[C@H](NC(=O)c1ccnc(C(F)(F)F)n1)c1ncnn1-c1ccc(C#N)cn1 [II-8] | 100 | 100 | 100 |  |  | 80 to 100 | 80 to 100 | 80 to 100 | 80 to 100 | 100 | 90 | 100 | 
C[C@H](NC(=O)c1cc(C(F)(F)F)cc(C(F)(F)F)c1)c1ncnn1-c1ncc(Cl)s1 [II-40] |  | 80 |  |  |  |  | 80 to 100 |  | 80 to 100 | 100 | 100 | 100 | 
C[C@H](NC(=O)c1cc(OC(F)F)cc(C(F)F)c1)c1ncnn1-c1ccc(C#N)cn1 [II-116] |  | 100 | 100 | 100 | 90 |  | 80 to 100 | 80 to 100 | 80 to 100 |  |  | 100 | 100
Cc1nc([C@H](C)NC(=O)c2cc(Br)cc(Br)c2)n(-c2ccc(C#N)cn2)n1 [II-52] | 100 | 100 | 100 | 100 | 90 | 80 to 100 | 80 to 100 | 80 to 100 | 80 to 100 |  |  |  | 100
CCN(C)C(=O)c1ccc(-n2ncnc2[C@H](C)NC(=O)c2cc(Cl)cc(C(F)(F)F)c2)nc1 [II-27] |  | 100 | 100 | 100 |  |  | 80 to 100 |  |  | 100 | 90 |  | 
CCN(C(=O)c1ccc(-n2ncnc2[C@H](C)NC(=O)c2cc(Cl)cc(C(F)(F)F)c2)nc1)C1CC1 [II-31] |  | 100 | 100 | 100 | 100 | 80 to 100 | 80 to 100 |  | 80 to 100 | 90 | 100 |  | 
C[C@H](NC(=O)c1cc(Cl)cc(OC(F)(F)F)c1)c1ncnn1-c1ncc(Cl)s1 [II-16] | 100 | 100 | 100 |  | 90 |  | 80 to 100 |  | 80 to 100 | 100 |  | 90 | 
C[C@H](NC(=O)c1cc(C(F)(F)F)cc(C(F)(F)F)c1)c1ncnn1-c1ccc(C(N)=O)cn1 [II-81] | 100 |  |  | 100 | 90 | 80 to 100 | 80 to 100 |  | 80 to 100 |  |  | 100 | 100
C[C@H](NC(=O)c1cc(Br)cc(OC(F)(F)F)c1)c1ncnn1-c1ccc(C#N)cn1 [II-14] | 100 | 80 | 80 | 100 |  | 80 to 100 |  | 80 to 100 | 80 to 100 | 100 |  | 100 | 
C[C@H](NC(=O)c1cc(C(F)F)cc(C(F)F)c1)c1ncnn1-c1ccc(C#N)cn1 [II-101] |  | 100 | 100 | 100 | 90 | 80 to 100 | 80 to 100 | 80 to 100 | 80 to 100 |  |  | 100 | 100
